One experiment has as its target T1, NR1A /2B (Rattus norvegicus, UniProt P35439+Q00960).
T1 construct: expressed in transfected cells; host or cells: Xenopus laevis oocytes (cRNA micro-injection)
Put plainly: Electrophysiological assay at NMDA receptor subunits NR1A/2B expressed in Xenopus oocytes. The class given is cell-based. As to conditions: rat clones in Xenopus oocytes, currents activated by glutamate (100 μM) and glycine (1-100 μM). An excerpt: (§1) Many of the properties of native NMDA receptors are seen in recombinant homomeric NR1 receptors expressed in Xenopus oocytes. These properties are altered by the NR2 subunits. Recombinant NMDA receptors expressed in Xenopus oocytes have been studied by voltage-clamp recording, as has developmental and regional expression of the mRNAs encoding NMDA receptor subunits. Electrophysiological assays were utilized to characterize the actions of compounds at NMDA receptors expressed in Xenopus oocytes.
(§2) Electrophysiological Assays at NMDA receptor subunits.
(§3) cDNA clones encoding the NR1A, NR2A, NR2B, and NR2C rat NMDA receptor subtypes were used. […] The clones were transformed into appropriate host bacteria and plasmid preparations were made with conventional DNA purification techniques. A sample of each clone was linearized by restriction enzyme digestion and cRNA was synthesized with T3 RNA polymerase. The cRNA was diluted to 400 ng/μl and stored in 1 μl aliquots at -80° C. until injection.
(§4) The Xenopus Oocyte Expression System
(§5) Follicle-enclosed oocytes were micro-injected with 1:1 mixtures of NR1A:NR2A, 2B or 2C; infecting 1-10 ng of RNA encoding each receptor subunit. NR1A encoding RNA was injected alone at ~20 ng. Oocytes were stored in Barth's medium containing (in mM):NaCl, 88; KCl, 1; CaCl2, 0.41; Ca(NO3)2, 0.33; MgSo4, 0.82 NaHCO3, 2.4; HEPES 5, pH 7.4, with 0.11 mg/ml gentamicin sulphate. While oocytes were still surrounded by enveloping ovarian tissues the Barth's medium was supplemented with 0.1% bovine serum.
(§6) Electrical recordings were made using a conventional two-electrode voltage clamp (Dagan TEV-200) over periods ranging between 3-21 days following injection. […] Drugs were applied by bath perfusion. Using oocytes expressing different subunit combinations of NMDA receptor, NMDA currents were activated by co-application of glutamate (100 μM) and glycine (1-100 μM). Inhibitory potency of the novel antagonists was assessed on responses elicited by fixed concentrations of glutamate and glycine, by measuring reductions in current induced by progressively increasing concentrations of antagonist. Concentration-inhibition curves were fit with equation 1.
(§7) in which Icontrol is the current evoked by agonists alone, pIC50 =-log IC50, IC50 is the concentration of antagonist that produces half maximal inhibition, and n is the slope factor. […] For incomplete curves analysis by fitting was unreliable and IC50 values were calculated by simple regression over linear portions of the curves (Origin: Microcal Software).

Experiment [1] relates to 6-Hydroxydopamine-lesioned rats. In words: 6-OHDA Rat Assay: potentiation of contraversive rotation induced by L-DOPA methyl ester. The class given is in vivo, Sprague-Dawley rats. Particulars: po; L-DOPA methyl ester 10 mg/kg SC; total contraversive rotations over 6 hour vs L-DOPA only. As for the experimental part:
Adult male Sprague-Dawley rats were anesthetized with chloral hydrate and unilateral lesions of the nigrostriatal dopamine system were accomplished by infusion of 8 μg of 6-hydroxydopamine HBr (6-OHDA) into the right medial forebrain bundle. […] A minimum of 3 weeks after surgery, the rotational behavior induced by apomorphine HCL 50 μg/kg subcutaneously (SC) was assessed. […] Rotational behavior was measured using an automatic rotometer system (Rotorat Rotational Activity System, MED Associates, Georgia, Vt.). Anti-parkinsonian activity was assessed as the ability of the compound to potentiate the contraversive rotation induced by L-DOPA methyl ester, 10 mg/kg SC, over a 6 hour period. Experiments were conducted using a crossover paradigm where each rat received either a vehicle plus L-DOPA, or the test compound plus L-DOPA, in randomized order. Rats were tested at 7 day intervals. In experiments in which the compound was tested orally, rats were food deprived for 16 hours. Statistical analysis between treatment groups were performed using a paired t-test.

The next experiment addresses T2, NR1A /2C (Rattus norvegicus, UniProt P35439+Q00961).
T2 construct: expressed in transfected cells; host or cells: Xenopus laevis oocytes (cRNA micro-injection)
Put plainly: Electrophysiological assay at NMDA receptor subunits NR1A/2C expressed in Xenopus oocytes. The class given is cell-based. Particulars: rat clones in Xenopus oocytes, currents activated by glutamate (100 μM) and glycine (1-100 μM).
Text: as §1, §2, §3, §4, §5, §6, §7

The target of another experiment is T3, NRIA /2A (Rattus norvegicus, UniProt P35439+Q00959).
T3 construct: expressed in transfected cells; host or cells: Xenopus laevis oocytes (cRNA micro-injection)
T3 sequence (Q00959 23-1464, other chains not shown): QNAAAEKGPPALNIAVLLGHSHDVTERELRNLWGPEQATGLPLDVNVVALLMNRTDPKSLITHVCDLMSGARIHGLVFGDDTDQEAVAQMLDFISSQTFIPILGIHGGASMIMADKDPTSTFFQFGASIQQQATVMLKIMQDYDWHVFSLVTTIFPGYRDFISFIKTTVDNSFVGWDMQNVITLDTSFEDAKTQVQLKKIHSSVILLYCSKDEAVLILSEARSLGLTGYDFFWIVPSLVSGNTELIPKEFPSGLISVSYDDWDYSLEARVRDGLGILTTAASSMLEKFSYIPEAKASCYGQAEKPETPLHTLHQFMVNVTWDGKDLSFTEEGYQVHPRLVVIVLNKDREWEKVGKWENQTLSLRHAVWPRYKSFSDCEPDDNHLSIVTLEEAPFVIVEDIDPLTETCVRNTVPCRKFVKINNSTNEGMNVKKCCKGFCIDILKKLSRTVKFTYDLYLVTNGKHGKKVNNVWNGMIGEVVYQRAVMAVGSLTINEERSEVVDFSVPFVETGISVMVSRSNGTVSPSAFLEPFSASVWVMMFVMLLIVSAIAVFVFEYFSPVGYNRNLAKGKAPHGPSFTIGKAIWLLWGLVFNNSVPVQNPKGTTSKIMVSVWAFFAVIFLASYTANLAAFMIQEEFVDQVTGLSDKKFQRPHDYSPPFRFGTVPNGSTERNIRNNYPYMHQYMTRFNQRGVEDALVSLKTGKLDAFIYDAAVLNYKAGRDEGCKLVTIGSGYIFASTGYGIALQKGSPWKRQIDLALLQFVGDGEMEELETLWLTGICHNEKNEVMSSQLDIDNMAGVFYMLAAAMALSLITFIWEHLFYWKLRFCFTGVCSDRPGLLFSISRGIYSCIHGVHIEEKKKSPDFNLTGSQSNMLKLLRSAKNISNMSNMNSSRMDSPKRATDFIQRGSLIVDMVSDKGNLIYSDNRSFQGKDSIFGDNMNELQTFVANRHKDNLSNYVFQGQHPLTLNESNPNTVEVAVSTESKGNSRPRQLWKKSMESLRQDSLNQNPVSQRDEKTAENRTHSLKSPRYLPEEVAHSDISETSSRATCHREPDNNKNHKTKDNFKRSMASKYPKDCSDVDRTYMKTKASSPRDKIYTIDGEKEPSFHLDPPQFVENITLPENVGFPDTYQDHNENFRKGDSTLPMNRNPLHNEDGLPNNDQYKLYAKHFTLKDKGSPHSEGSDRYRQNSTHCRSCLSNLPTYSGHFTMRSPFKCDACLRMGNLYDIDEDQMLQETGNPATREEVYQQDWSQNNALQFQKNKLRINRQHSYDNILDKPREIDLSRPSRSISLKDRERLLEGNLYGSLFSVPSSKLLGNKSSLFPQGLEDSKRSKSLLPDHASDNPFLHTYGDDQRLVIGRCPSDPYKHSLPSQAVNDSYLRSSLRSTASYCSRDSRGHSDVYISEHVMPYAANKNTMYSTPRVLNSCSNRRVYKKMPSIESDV
Put plainly: Electrophysiological assay at NMDA receptor subunits NR1A/2A expressed in Xenopus oocytes. The class given is cell-based. As to conditions: rat clones in Xenopus oocytes, currents activated by glutamate (100 μM) and glycine (1-100 μM).
Text: as §1, §2, §3, §4, §5, §6, §7

Each structure is given as a SMILES string. A value given as a limit tells only on which side of the number the result lay.

T1 sequence (Q00960 27-1482, other chains not shown): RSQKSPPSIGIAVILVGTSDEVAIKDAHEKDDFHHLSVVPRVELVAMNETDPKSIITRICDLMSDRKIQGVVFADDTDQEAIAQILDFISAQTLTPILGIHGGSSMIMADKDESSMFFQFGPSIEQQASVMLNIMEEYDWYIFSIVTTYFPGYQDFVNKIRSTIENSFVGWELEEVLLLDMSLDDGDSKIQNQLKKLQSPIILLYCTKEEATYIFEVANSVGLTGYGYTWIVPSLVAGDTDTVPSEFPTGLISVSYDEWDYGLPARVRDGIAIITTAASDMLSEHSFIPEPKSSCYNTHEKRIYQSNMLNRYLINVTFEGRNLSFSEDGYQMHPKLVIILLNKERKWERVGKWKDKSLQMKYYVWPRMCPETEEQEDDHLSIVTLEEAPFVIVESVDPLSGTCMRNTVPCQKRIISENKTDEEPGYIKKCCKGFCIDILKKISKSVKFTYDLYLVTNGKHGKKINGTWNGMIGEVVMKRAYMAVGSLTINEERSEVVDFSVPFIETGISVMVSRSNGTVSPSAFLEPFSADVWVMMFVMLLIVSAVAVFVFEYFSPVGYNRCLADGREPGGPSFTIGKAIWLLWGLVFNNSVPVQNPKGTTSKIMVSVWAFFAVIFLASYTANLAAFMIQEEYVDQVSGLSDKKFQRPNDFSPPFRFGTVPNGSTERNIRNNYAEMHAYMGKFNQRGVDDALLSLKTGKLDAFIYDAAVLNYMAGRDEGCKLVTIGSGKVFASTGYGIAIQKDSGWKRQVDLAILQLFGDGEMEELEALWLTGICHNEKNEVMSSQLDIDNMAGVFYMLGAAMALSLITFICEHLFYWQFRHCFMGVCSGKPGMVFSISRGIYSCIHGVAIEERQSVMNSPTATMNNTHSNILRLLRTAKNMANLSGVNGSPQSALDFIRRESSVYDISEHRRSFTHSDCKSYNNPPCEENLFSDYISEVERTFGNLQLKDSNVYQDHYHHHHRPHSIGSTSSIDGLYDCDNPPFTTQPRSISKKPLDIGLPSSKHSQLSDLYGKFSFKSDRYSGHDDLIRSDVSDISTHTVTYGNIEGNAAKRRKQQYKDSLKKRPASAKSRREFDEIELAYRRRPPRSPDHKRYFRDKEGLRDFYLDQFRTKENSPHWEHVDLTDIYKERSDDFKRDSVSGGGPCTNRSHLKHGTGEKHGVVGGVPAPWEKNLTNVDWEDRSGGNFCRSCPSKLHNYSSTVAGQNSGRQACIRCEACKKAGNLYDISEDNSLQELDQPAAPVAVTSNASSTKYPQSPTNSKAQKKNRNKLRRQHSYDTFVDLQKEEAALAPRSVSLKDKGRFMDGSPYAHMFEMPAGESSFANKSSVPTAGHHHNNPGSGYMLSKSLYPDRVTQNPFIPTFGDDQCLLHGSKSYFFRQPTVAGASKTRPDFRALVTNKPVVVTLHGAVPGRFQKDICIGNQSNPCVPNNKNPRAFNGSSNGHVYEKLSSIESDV
T2 sequence (Q00961 20-1237, other chains not shown): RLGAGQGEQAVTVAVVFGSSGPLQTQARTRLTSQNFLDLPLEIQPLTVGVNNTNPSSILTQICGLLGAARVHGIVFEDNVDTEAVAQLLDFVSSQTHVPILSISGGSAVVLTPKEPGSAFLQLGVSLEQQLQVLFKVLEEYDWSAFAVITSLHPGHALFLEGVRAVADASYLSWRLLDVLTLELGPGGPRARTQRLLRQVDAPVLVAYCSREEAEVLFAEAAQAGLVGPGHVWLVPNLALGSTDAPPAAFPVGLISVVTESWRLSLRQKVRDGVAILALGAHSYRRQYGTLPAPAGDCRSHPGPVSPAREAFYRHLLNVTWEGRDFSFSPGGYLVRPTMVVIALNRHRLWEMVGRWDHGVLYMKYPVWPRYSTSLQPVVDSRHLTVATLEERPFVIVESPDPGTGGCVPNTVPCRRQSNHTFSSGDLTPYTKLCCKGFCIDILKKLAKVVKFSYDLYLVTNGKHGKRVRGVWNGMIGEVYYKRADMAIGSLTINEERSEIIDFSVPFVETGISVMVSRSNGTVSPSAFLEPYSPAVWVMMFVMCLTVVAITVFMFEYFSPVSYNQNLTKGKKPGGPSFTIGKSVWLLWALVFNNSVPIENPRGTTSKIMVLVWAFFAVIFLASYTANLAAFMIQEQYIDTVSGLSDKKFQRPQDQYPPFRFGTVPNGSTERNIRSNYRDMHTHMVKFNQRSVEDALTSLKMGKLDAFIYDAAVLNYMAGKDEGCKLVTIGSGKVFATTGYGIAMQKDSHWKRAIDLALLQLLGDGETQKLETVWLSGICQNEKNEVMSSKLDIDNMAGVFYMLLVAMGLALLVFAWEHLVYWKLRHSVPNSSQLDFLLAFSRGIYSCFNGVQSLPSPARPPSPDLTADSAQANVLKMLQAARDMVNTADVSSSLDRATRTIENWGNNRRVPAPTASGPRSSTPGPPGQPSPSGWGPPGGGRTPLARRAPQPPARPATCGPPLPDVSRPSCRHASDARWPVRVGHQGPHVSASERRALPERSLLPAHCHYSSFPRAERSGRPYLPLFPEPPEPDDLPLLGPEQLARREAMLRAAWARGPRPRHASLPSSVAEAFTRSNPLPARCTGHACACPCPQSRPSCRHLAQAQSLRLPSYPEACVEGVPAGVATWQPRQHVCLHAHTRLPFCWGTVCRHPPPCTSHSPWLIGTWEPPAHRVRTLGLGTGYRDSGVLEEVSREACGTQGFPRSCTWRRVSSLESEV

In the case of `O=c1[nH]c2ccc([S+]([O-])CCN3CCC(Cc4ccc(F)cc4)CC3)cc2o1` (single isomer, unassigned; (+)) [Example 19, (+)-6-{2-[4-(4-fluorobenzyl)piperidine-1-yl]ethanesulfinyl}-3H-benzooxazol-2-one], the IC50 – broadly, the midpoint of a concentration-inhibition curve – on NR1A /2B is 0.03 µM. For the same compound, in experiment [1], the “6-OHDA rat MED (minimum effective dose)” value amounted to 1 mg/kg.
`O=C(c1ccccc1)C1CCN(CC[S+]([O-])c2ccc3[nH]c(=O)oc3c2)CC1` (centres unmarked) [Example 10, 6-[2-(4-benzoylpiperidin-1-yl)-ethanesulfinyl]-3H-benzooxazol-2-one]: the IC50 on NR1A /2B stood at 0.34 µM; at NR1A /2C it was 140 µM; on NRIA /2A it was 70 µM.
Take `O=c1[nH]c2ccc([S+]([O-])CCN3CCC(Cc4ccc(Cl)c(Cl)c4)CC3)cc2o1` (centres unmarked) [Example 6, 6-{2-[4-(3,4-dichlorobenzyl)-piperidin-1-yl]-ethanesulfinyl}-3H-benzooxazol-2-one]: the results for the half-maximal inhibitory concentration (IC50) on NR1A /2B, on NR1A /2C and at NRIA /2A were 0.1 µM, 80 µM and 70 µM, respectively. Besides, the “6-OHDA rat MED (minimum effective dose)” value in experiment [1] is on record as > 10 mg/kg.
In the same order, the values of `O=c1[nH]c2cc(Cl)c([S+]([O-])CCN3CCC(Cc4ccccc4)CC3)cc2o1` (centres unmarked) [Example 17, 6-[2-(4-benzylpiperidin-1-yl)ethanesulfinyl]-5-chloro-3H-benzooxazol-2-one] are 0.16 µM, > 300 µM, 40 µM and > 10 mg/kg.
In the case of `O=c1[nH]c2ccc([S+]([O-])CCN3CCC(Cc4ccccc4F)CC3)cc2o1` (centres unmarked) [Example 7, 6-{2-[4-(2-fluorobenzyl)-piperidin-1-yl]-ethanesulfinyl}-3H-benzooxazol-2-one], the IC50 turned out to be 0.09 µM on NR1A /2B, 60 µM at NR1A /2C and 55 µM on NRIA /2A. For the same compound, in experiment [1], the “6-OHDA rat MED (minimum effective dose)” value came to 10 mg/kg.
In the same order, the values of `O=c1[nH]c2ccc([S+]([O-])CCN3CCC(Cc4cccc(F)c4F)CC3)cc2o1` (centres unmarked) [Example 11, 6-{2-[4-(2,3-difluorobenzyl)-piperidin-1-yl]-ethanesulfinyl}-3H-benzooxazol-2-one] are 0.05 µM, 140 µM, 40 µM and 10 mg/kg.
For `O=c1[nH]c2ccc([S+]([O-])CCN3CCC(Cc4c(F)cccc4F)CC3)cc2o1` (centres unmarked) [Example 14, 6-{2-4[-(2,6-difluorobenzyl)-piperidin-1-yl]-ethanesulfinyl}-3H-benzooxazol-2-one], in that order: 0.04 µM, 160 µM, 55 µM and > 10 mg/kg.
`O=c1[nH]c2ccc([S+]([O-])CCN3CCC(Cc4ccc(F)cc4F)CC3)cc2o1` (centres unmarked) [Example 12, 6-{2-[4-(2,4-difluorobenzyl)-piperidin-1-yl]-ethanesulfinyl}-3H-benzooxazol-2-one]: the IC50 on NR1A /2B was 0.01 µM; at NR1A /2C it was 130 µM; at NRIA /2A it was 30 µM. Besides, in experiment [1], the “6-OHDA rat MED (minimum effective dose)” value turned out to be 10 mg/kg.
For the compound `O=c1[nH]c2ccc([S+]([O-])CCN3CCC(Cc4ccc(C(F)(F)F)cc4)CC3)cc2o1` (centres unmarked) [Example 13], the IC50 came out at 0.04 µM on NR1A /2B, 150 µM at NR1A /2C and 35 µM on NRIA /2A. Also, the “6-OHDA rat MED (minimum effective dose)” value in experiment [1] is listed as 10 mg/kg.
In the same order, the values of `COc1ccc(CC2CCN(CC[S+]([O-])c3ccc4[nH]c(=O)oc4c3)CC2)cc1` (centres unmarked) [Example 5, 6-{2-[4-(4-methoxybenzyl)-piperidin-1-yl]-ethanesulfinyl}-3H-benzooxazol-2-one] are 0.1 µM, 150 µM, 55 µM and > 10 mg/kg.
`O=c1[nH]c2ccc([S+]([O-])CCN3CCC(O)(Cc4ccc(F)cc4)CC3)cc2o1` (centres unmarked) [Example 9, 6-{2-[4-(4-fluorobenzyl)-4-hydroxy-piperidin-1-yl]-ethanesulfinyl}-3H-benzooxazol-2-one]: the concentration for half-maximal inhibition (IC50) on NR1A /2B is 0.9 µM; at NR1A /2C, 200 µM; on NRIA /2A, 50 µM. Also, the “6-OHDA rat MED (minimum effective dose)” value in experiment [1] is on record as > 10 mg/kg.
For `O=c1[nH]c2ccc([S+]([O-])CCN3CCC(Cc4ccccc4)CC3)cc2o1` (centres unmarked) [Example 4, 6-[2-(4-Benzyl-piperidin-1-yl)-ethanesulfinyl]-3H-benzooxazol-2-one], in that order: 0.03 µM, > 300 µM, > 300 µM and 3 mg/kg.
Turning to `O=c1[nH]c2ccc([S+]([O-])CCN3CCC(Cc4ccc(F)cc4)CC3)cc2o1` (single isomer, unassigned; (-)) [Example 20, (-)-6-{2-[4,(4-fluorobenzyl)piperidin-1-yl]ethanesulfinyl}-3H-benzooxazol-2-one], on NR1A /2B, the IC50 came to 0.03 µM. The “6-OHDA rat MED (minimum effective dose)” value in experiment [1] is given as 30 mg/kg.
`O=c1[nH]c2cc(Cl)c([S+]([O-])CCN3CCC(Cc4ccc(F)cc4)CC3)cc2o1` (centres unmarked) [Example 18, 5-Chloro-6-{2-[4-(4-fluorobenzyl)piperidin-1-yl]ethanesulfinyl}-3H-benzooxazol-2-one]: the IC50 was 0.11 µM on NR1A /2B, > 300 µM on NR1A /2C and 35 µM on NRIA /2A. In addition, the “6-OHDA rat MED (minimum effective dose)” value in experiment [1] is reported as > 10 mg/kg.
With `Cc1ccc(CC2CCN(CC[S+]([O-])c3ccc4[nH]c(=O)oc4c3)CC2)cc1` (centres unmarked) [Example 3, 6-{2-[4-(4-methyl-benzyl)-piperidin-1-yl]-ethanesulfinyl}-3H-benzooxazol-2-one], the half-inhibitory concentration (IC50) at NR1A /2B is 0.03 µM; at NRIA /2A, 100 µM. Also, the “6-OHDA rat MED (minimum effective dose)” value in experiment [1] turned out to be 3 mg/kg.
As for `CC(=O)Nc1ccc(CC2CCN(CC[S+]([O-])c3ccc4[nH]c(=O)oc4c3)CC2)cc1` (centres unmarked) [Example 16, N-(4-{1-[2-(2-oxo-2,3-dihydrobenzooxazol-6-sulfinyl)ethyl]piperidin-4-ylmethyl}phenyl)acetamide], the concentration for half-maximal inhibition (IC50) on NR1A /2B was 10 µM; at NR1A /2C, > 300 µM; on NRIA /2A it was > 300 µM.
On to `O=c1[nH]c2ccc([S+]([O-])CCN3CCC(Cc4ccc(F)cc4)CC3)cc2o1` (centres unmarked) [Example 1, 6-[2-[4-(4-Fluoro-benzyl)-piperidin-1-yl]-ethanesulfinyl]-3H-benzooxazol-2-one], for which the results for the IC50 at NR1A /2B, on NR1A /2C and at NRIA /2A were 0.03 µM, 190 µM and 105 µM, respectively. Besides, the “6-OHDA rat MED (minimum effective dose)” value in experiment [1] worked out at 1 mg/kg.
In the same order, the values of `O=c1[nH]c2ccc([S+]([O-])CCN3CCC(Cc4ccc(Cl)cc4Cl)CC3)cc2o1` (centres unmarked) [Example 15, 6-{2-[4-(2,4-dichlorobenzyl)-piperidin-1-yl]-ethanesulfinyl}-3H-benzooxazol-2-one] are 0.04 µM, 150 µM, 90 µM and 10 mg/kg.
Turning to `O=c1[nH]c2ccc([S+]([O-])CCN3CCC(O)(Cc4ccccc4)CC3)cc2o1` (centres unmarked) [Example 8, 6-[2-(4-benzyl-4-hydroxypiperidin-1-yl)-ethanesulfinyl]-3H-benzooxazol-2-one], the IC50 turned out to be 1.1 µM on NR1A /2B, 230 µM on NR1A /2C and 40 µM at NRIA /2A.

Values taken from patent publication US6284774A, “4-Benzyl piperidine alkylsulfoxide heterocycles and their use as subtype-selective NMDA receptor antagonists” (priority 2000, dated 2001).
